row,SMILES,melting point [°C]
1,"CC(C)(C)OC(=O)n1c(-c2ccc(Cl)cc2)cc2ccccc21 [4b, tert-butyl 2-(4-chlorophenyl)-1H-indole-1-carboxylate]",86 to 87
2,"CC(C)(C)OC(=O)n1c(-c2ccccc2)cc2ccccc21 [compound 4, tert-butyl 2-phenyl-1H-indole-1-carboxylate]",70 to 72
3,"Cc1ccc2cc(-c3ccccc3)n(C(=O)OC(C)(C)C)c2c1 [4y, tert-butyl 6-methyl-2-phenyl-1H-indole-1-carboxylate]",62 to 64
4,"CC(C)(C)OC(=O)n1c(-c2ccccc2)cc2c(Cl)cccc21 [4q, tert-butyl 4-chloro-2-phenyl-1H-indole-1-carboxylate]",111 to 112
5,"CC(C)(C)OC(=O)n1c(-c2ccccc2)cc2ccc(Cl)cc21 [4v, tert-butyl 6-chloro-2-phenyl-1H-indole-1-carboxylate]",61 to 62
6,"CC(C)(C)OC(=O)n1c(-c2ccc(C(F)(F)F)cc2)cc2ccccc21 [4e, tert-butyl 2-(4-(trifluoromethyl)phenyl)-1H-indole-1-carboxylate]",108 to 109
7,"CC(C)(C)OC(=O)n1c(-c2ccccc2)cc2ccc(Br)cc21 [4w, tert-butyl 6-bromo-2-phenyl-1H-indole-1-carboxylate]",54 to 55
8,"CC(C)(C)OC(=O)n1c(-c2ccc(Br)cc2)cc2ccccc21 [4c, tert-butyl 2-(4-bromophenyl)-1H-indole-1-carboxylate]",88 to 89
9,"COc1ccc(-c2cc3ccccc3n2C(=O)OC(C)(C)C)cc1 [4g, tert-butyl 2-(4-methoxyphenyl)-1H-indole-1-carboxylate]",89 to 90
10,"COc1cccc2c1cc(-c1ccccc1)n2C(=O)OC(C)(C)C [4r, tert-butyl 4-methoxy-2-phenyl-1H-indole-1-carboxylate]",81 to 82
11,"CC(C)(C)OC(=O)n1c(-c2ccccc2)cc2c(F)cccc21 [4p, tert-butyl 4-fluoro-2-phenyl-1H-indole-1-carboxylate]",121 to 122
12,"CC(C)(C)OC(=O)n1c(-c2ccccc2)cc2ccc(C(F)(F)F)cc21 [4x, tert-butyl 2-phenyl-6-(trifluoromethyl)-1H-indole-1-carboxylate]",104
13,"CC(C)(C)OC(=O)n1c(-c2ccc3ccccc3c2)cc2ccccc21 [4l, tert-butyl 2-(naphthalen-2-yl)-1H-indole-1-carboxylate]",134 to 135
14,"Cc1c(-c2ccccc2)n(C(=O)OC(C)(C)C)c2ccccc12 [4aa, tert-butyl 3-methyl-2-phenyl-1H-indole-1-carboxylate]",110 to 112

# Source: patent US9527812B2, “N-heterocyclic carbene-catalyzed synthesis of 2-aryl indoles” (Northwestern University, priority 2014, dated 2016)
